Patent US4400510A, “A-32256 Phenazine antibiotic” (Eli Lilly and Company, priority 1981, dated 1983)
In brackets after ≈: the same amount, converted by molar mass. Like-named read-outs stand apart in the source and are kept apart here.

Assays:
Clostridium perfringens = test: microbe, parasite or virus in culture; format: cell-based; conditions: Clostridium perfringens, strain 81; Table 6
[1] = tested on: Peptostreptococcus intermedius; test: agar-dilution MIC vs. anaerobic bacteria; format: cell-based; conditions: strain 1264, Table 6
Actinomyces israellii = test: agar-dilution MIC vs. anaerobic bacteria; format: cell-based; conditions: strain W855; Table 6
Protocol: (§1) The agar-dilution procedure described by the International Collaborative Study (ICS) group was used to determine MIC values.
(§2) The MIC was determined by the agar-dilution method.

Peptococcus prevoti [2] = test: agar-dilution MIC vs. anaerobic bacteria; format: cell-based
Protocol: as §1, §2

Clostridium septicum = test: agar-dilution MIC vs. anaerobic bacteria; format: cell-based; conditions: strain 1128, Table 6
Protocol: as §1, §2

[3] = tested on: Bacteroides thetaiotaomicron; test: agar-dilution MIC vs. anaerobic bacteria; format: cell-based
Protocol: as §1, §2

[4] = tested on: Bacteroides melanogenicus; test: agar-dilution MIC vs. anaerobic bacteria; format: cell-based; conditions: Table 6
[5] = tested on: Streptococcus sp. (Group D); test: disc-plate screening procedure, zone of inhibition; conditions: read-out: Zone Diameter
[6] = tested on: Fusobacterium necrophorum; test: agar-dilution MIC vs. anaerobic bacteria; format: cell-based; conditions: Fusobacterium necrophorum; strain 6054A; Table 6; read-out: MIC
Propionibacterium acnes = test: agar-dilution MIC vs. anaerobic bacteria; format: cell-based; conditions: strain 79; Table 6
potentiometric titration = format: physicochemical; conditions: 66% dimethylformamide in water, initial pH 4.1
Protocol: Antibiotic A-32256 is a green, crystalline solid having a melting point of about 196°-198° C. The antibiotic has a molecular weight of 402, as determined by electron-impact mass spectrometry, and an approximate elemental analysis as follows: 68.71% carbon, 4.48% hydrogen, 6.93% nitrogen, and 19.21% oxygen. Based on elemental analysis and molecular weight, an empirical formula of C23 H18 N2 O5 is assigned to antibiotic A-32256. […] Antibiotic A-32256 has specific rotation of [α]D^25 +5° (c 0.96, chloroform).

Bacteroides fragilis = test: agar-dilution MIC vs. Bacteroides species; format: cell-based; conditions: 24 hours, Table 8
Protocol: as §1
(§3) The MIC values were determined by the agar-dilution method, the endpoints being read 24 hours after incubation, and are recorded in Table 8, which follows.

B. vulgatis = test: agar-dilution MIC vs. Bacteroides species; format: cell-based; conditions: B. vulgatis 1563; 24 hours; Table 8
Protocol: as §1, §3

B. thetaiotaomicron = test: agar-dilution MIC vs. Bacteroides species; format: cell-based; conditions: 24 hours, Table 8
Protocol: as §1, §3

B. corrodens = test: agar-dilution MIC vs. Bacteroides species; format: cell-based; conditions: B. corrodens 1874; 24 hours; Table 8
Protocol: as §1, §3

Fusobacterium symbiosum = test: agar-dilution MIC vs. anaerobic bacteria; format: cell-based; conditions: strain 1470; Table 6
Streptococcus pneumoniae = test: disc-plate screening procedure, zone of inhibition; conditions: read-out: Zone Diameter
Trichomonas vaginalis = test: broth dilution assay, antitrichomonal activity; format: cell-based; conditions: in vitro
mosquito = mosquito larvacide activity; format: in vivo; conditions: application rate of about 20 ppm
Description: Antibiotic A-32256 is also active as a mosquito larvacide at an application rate of about 20 ppm.

[7] = tested on: Peptococcus asaccharolyticus; test: agar-dilution MIC vs. Peptococcus and Peptostreptococcus species; format: cell-based; conditions: Table 9
Protocol: as §1
(§4) The MIC values were determined by the agar-dilution method, and are recorded in Table 9, which follows.

[8] = tested on: Peptostreptococcus anaerobius; test: as above; format: cell-based; conditions: Table 9
Protocol: as §1, §4

Peptococcus prevoti [9] = test: as above; format: cell-based; conditions: Table 9
Protocol: as §1, §4

[10] = tested on: Peptostreptococcus intermedius; test: as above; format: cell-based; conditions: Table 9
Protocol: as §1, §4

Peptococcus constellatus = test: as above; format: cell-based; conditions: Pc. constellatus 1468; Table 9
Protocol: as §1, §4

Peptococcus magnus = test: as above; format: cell-based; conditions: Table 9
Protocol: as §1, §4

Bacteroides corrodens = test: agar-dilution MIC vs. anaerobic bacteria; format: cell-based; conditions: Eikenella corrodens; strain 1874; Table 6

Structure (SMILES): Cc1cccc(O)c1C(=O)OC(C)c1cccc2nc3c(C(=O)O)cccc3nc12 (stereo not shown) [Antibiotic A-32256, 6-[1-[(2-hydroxy-6-methylbenzoyl)oxy]-ethyl]-1-phenazinecarboxylic acid]
- MIC (Clostridium perfringens): 2 µg/mL (≈ 4.97 µM)
- MIC [1]: ≤ 0.5 µg/mL
- MIC (Actinomyces israellii): 16 µg/mL (≈ 39.8 µM)
- MIC (Peptococcus prevoti [2]): ≤ 0.5 µg/mL
- MIC (Clostridium septicum): ≤ 0.5 µg/mL
- MIC [3]: ≤ 0.5 µg/mL
- MIC ([4]; Bacteroides, strain 1856/28, read-out: MIC): 16 µg/mL (≈ 39.8 µM)
- MIC ([4]; strain 2736): 16 µg/mL (≈ 39.8 µM)
- zone of inhibition at 30 µg/disc [5]: 18.2 mm
- zone of inhibition at 300 µg/disc [5]: 21 mm
- MIC [6]: 1 µg/mL (≈ 2.49 µM)
- MIC (Propionibacterium acnes): 2 µg/mL (≈ 4.97 µM)
- pKa (potentiometric titration; pH 4.1, first titratable group): ~5.02
- pKa (potentiometric titration; pH 4.1, second titratable group): ~7.2
- MIC (Bacteroides fragilis; B. fragilis 2): 1.0 µg/mL (≈ 2.49 µM)
- MIC (Bacteroides fragilis; B. fragilis 9): 1.0 µg/mL (≈ 2.49 µM)
- MIC (Bacteroides fragilis; B. fragilis 62): 1.0 µg/mL (≈ 2.49 µM)
- MIC (Bacteroides fragilis; B. fragilis 103): 0.5 µg/mL (≈ 1.24 µM)
- MIC (Bacteroides fragilis; B. fragilis 104): 1.0 µg/mL (≈ 2.49 µM)
- MIC (Bacteroides fragilis; B. fragilis 106): 0.5 µg/mL (≈ 1.24 µM)
- MIC (Bacteroides fragilis; B. fragilis 107): 2 µg/mL (≈ 4.97 µM)
- MIC (Bacteroides fragilis; B. fragilis 108): 1.0 µg/mL (≈ 2.49 µM)
- MIC (Bacteroides fragilis; B. fragilis 110): 0.5 µg/mL (≈ 1.24 µM)
- MIC (Bacteroides fragilis; B. fragilis 111): 1.0 µg/mL (≈ 2.49 µM)
- MIC (Bacteroides fragilis; B. fragilis 112): 0.5 µg/mL (≈ 1.24 µM)
- MIC (Bacteroides fragilis; B. fragilis 113): 1.0 µg/mL (≈ 2.49 µM)
- MIC (Bacteroides fragilis; B. fragilis 1470): 0.5 µg/mL (≈ 1.24 µM)
- MIC (Bacteroides fragilis; B. fragilis 1877): 1.0 µg/mL (≈ 2.49 µM)
- MIC (Bacteroides fragilis; V. fragilis 1451 (so in the source)): 2 µg/mL (≈ 4.97 µM)
- MIC (B. vulgatis): 1.0 µg/mL (≈ 2.49 µM)
- MIC (B. thetaiotaomicron; B. thetaiotaomicron 1438): 1.0 µg/mL (≈ 2.49 µM)
- MIC (B. thetaiotaomicron; B. thetaiotaomicron 1900A): 1.0 µg/mL (≈ 2.49 µM)
- MIC (B. corrodens): 0.25 µg/mL (≈ 0.621 µM)
- MIC (Fusobacterium symbiosum): 2 µg/mL (≈ 4.97 µM)
- zone of inhibition at 30 µg/disc (Streptococcus pneumoniae): 14 mm
- zone of inhibition at 300 µg/disc (Streptococcus pneumoniae): 16 mm
- antitrichomonal activity (Trichomonas vaginalis): has shown antitrichomonal activity in vitro
- mosquito larvacide activity (mosquito): active
- MIC ([7]; Pc. asaccharolyticus 1302): 2 µg/mL (≈ 4.97 µM)
- MIC ([7]; Pc. asaccharolyticus 1344): 2 µg/mL (≈ 4.97 µM)
- MIC ([8]; Peptostreptococcus anaerobius, Ps. anaerobius 1428, read-out: MIC): ≤ 0.125 µg/mL
- MIC ([8]; Ps. anaerobius 8): 2 µg/mL (≈ 4.97 µM)
- MIC ([8]; Ps. anaerobius 52): 8 µg/mL (≈ 19.9 µM)
- MIC ([8]; Ps. anaerobius 59): 0.5 µg/mL (≈ 1.24 µM)
- MIC ([8]; Ps. anaerobius 1418): 0.25 µg/mL (≈ 0.621 µM)
- MIC ([8]; Ps. anaerobius 1451): 0.5 µg/mL (≈ 1.24 µM)
- MIC ([8]; Ps. anaerobius 1477): 8 µg/mL (≈ 19.9 µM)
- MIC (Peptococcus prevoti [9]; Pc. prevoti 1281): 2 µg/mL (≈ 4.97 µM)
- MIC (Peptococcus prevoti [9]; Pc. prevoti 1293): 16 µg/mL (≈ 39.8 µM)
- MIC (Peptococcus prevoti [9]; Pc. prevoti 1407): 2 µg/mL (≈ 4.97 µM)
- MIC ([10]; Ps. intermedius 1264): 2 µg/mL (≈ 4.97 µM)
- MIC ([10]; Ps. intermedius 1524, read-out: MIC): ≤ 0.125 µg/mL
- MIC ([10]; Ps. intermedius 1624): 8 µg/mL (≈ 19.9 µM)
- MIC (Peptococcus constellatus): 8 µg/mL (≈ 19.9 µM)
- MIC (Peptococcus magnus; Pc. magnus 1401): 2 µg/mL (≈ 4.97 µM)
- MIC (Peptococcus magnus; Pc. magnus 1421): 0.5 µg/mL (≈ 1.24 µM)
- MIC (Peptococcus magnus; Pc. magnus 1477): 0.5 µg/mL (≈ 1.24 µM)
- MIC (Bacteroides corrodens): ≤ 0.5 µg/mL
